Data reported in patent publication US11230532B2, “Pyrimidines and variants thereof, and uses therefor” (Afferent Pharmaceuticals Inc., priority 2016, dated 2022).
Like-named read-outs stand apart in the source and are kept apart here.

How the values were obtained:
P2X3 [1] = conditions: oxygen-linked analogs; from Carter et al, Bioorg Med Chem Lett 2009; cited from earlier work
P2X3 [2] = test: Mean pIC50s at P2X3 from Carter et al (literature); type: cell-based

Row | SMILES | P2X3 mean pIC50, X = O (P2X3 [1]) | Selectivity, X = O (P2X3 [2]) | Selectivity, X = O (P2X3 [2]; potency ratio P2X3 over P2X2/3 from the cited pIC50s)
1 | COc1cc(C(C)C)c(Oc2cnc(N)nc2N)cc1I [B, X = O] | 8.0 | 8 | 
2 | COc1cc(Oc2cnc(N)nc2N)c(C(C)C)cc1OC [Row A, X = O, reference compound] | 7.6 |  | 
3 | COc1cc(C(C)C)c(Oc2cnc(N)nc2N)cc1S(C)(=O)=O [C, X = O] | 7.0 | 10 | 
4 | COc1cc(C(C)C)c(Oc2cnc(N)nc2N)cc1Cl [D, X = O] | 7.6 |  | 4
